The source of these data is patent US8685999B2, “Beta carboline sulphonylurea derivatives as EP4 receptor antagonists” (Merck Sharp & Dohme Corp., priority 2008, dated 2014).

Like-named read-outs stand apart in the source and are kept apart here.

For the assay, the target named is T1, EP4 (Homo sapiens, UniProt P35408).
T1 construct: expressed in transfected cells; membranes prepared by differential centrifugation
The assay is described as follows: Prostanoid receptor binding assay (radioligand displacement binding assay). The protocol:
Prostanoid receptor cDNAs corresponding to full length coding sequences are subcloned into the appropriate sites of mammalian expression vectors and transfected into HEK 293(ebna) cells. HEK 293(ebna) cells expressing the individual cDNAs are grown under selection and individual colonies are isolated after 2-3 weeks of growth using the cloning ring method and subsequently expanded into clonal cell lines.
Transfected HEK 293(ebna) cells are maintained in culture, harvested and membranes are prepared by differential centrifugation, following lysis of the cells in the presence of protease inhibitors, for use in receptor binding assays. Prostanoid receptor binding assays (for DP1, DP2 (CRTH2), EP1, EP2, EP3-III, EP4, FP, IP, and TP) are performed in 10 mM MES/KOH (pH 6.0) (EPs, FP and TP) or 10 mM HEPES/KOH (pH 7.4) (DPs and IP), containing 1 mM EDTA, 2.5-30 mM divalent cation and the appropriate radio-ligand. Synthetic compounds are added in DMSO which is kept constant at 1% (v/v) in all incubations. The reaction is initiated by addition of membrane protein. Non-specific binding is determined in the presence of 10 μM of the corresponding non-radioactive prostanoid. Incubations are conducted for 60-120 min at room temperature or 30° C. and terminated by rapid filtration. Specific binding is calculated by subtracting non specific binding from total binding. The residual specific binding at each ligand concentration is calculated and expressed as a function of ligand concentration in order to construct sigmoidal concentration-response curves. The binding affinity of the compounds is determined by calculating the equilibrium inhibition constant (Ki) from the equation Ki=InPt/1+[radio-ligand]/Kd where Kd is the equilibrium dissociation constant for the radio-ligand:receptor interaction and InPt is the inflection point of the dose-response curves.
Abramovitz, M. et al., Biochem, Biophys. Acta, 2000, 1483, pp. 285.

Where [1] appears, read: column marked X when IC50 between 1 and 5, read-out: IC50 (nm) 1 < X < 5.
Where [2] appears, read: radioligand displacement binding assay, read-out: IC50.
The mark [3] stands for this setting: column marked X when IC50 < 1, read-out: IC50 (nm) X < 1.
Where [4] appears, read: column marked X when IC50 > 5, read-out: IC50 (nm) X > 5.

T1 sequence (P35408 whole entry): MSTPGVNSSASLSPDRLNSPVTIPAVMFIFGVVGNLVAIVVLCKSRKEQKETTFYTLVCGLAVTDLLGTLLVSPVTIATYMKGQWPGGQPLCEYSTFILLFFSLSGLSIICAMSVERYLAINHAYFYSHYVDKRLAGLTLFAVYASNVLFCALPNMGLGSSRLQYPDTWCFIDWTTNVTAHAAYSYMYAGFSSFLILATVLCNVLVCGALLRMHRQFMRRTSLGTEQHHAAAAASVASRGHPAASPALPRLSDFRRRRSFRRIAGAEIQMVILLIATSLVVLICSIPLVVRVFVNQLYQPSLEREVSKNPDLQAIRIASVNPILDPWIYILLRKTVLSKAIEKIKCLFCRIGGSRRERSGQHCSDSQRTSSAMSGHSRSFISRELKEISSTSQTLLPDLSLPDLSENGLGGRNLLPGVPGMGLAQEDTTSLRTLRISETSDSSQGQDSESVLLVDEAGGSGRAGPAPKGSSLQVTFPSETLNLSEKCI

The term IC50 denotes the point on the concentration scale where inhibition reaches its midpoint. As to `CN1CCc2c(n(-c3ccc(CC4(NC(=O)NS(=O)(=O)c5ccc(Cl)cc5)CC4)cc3)c3ccc(-c4ccccc4)cc23)C1=O` [Example 1-1, 4-chloro-N-[({1-[4-(2-methyl-1-oxo-6-phenyl-1,2,3,4-tetrahydro-9H-beta-carbolin-9-yl)benzyl]cyclopropyl}amino)carbonyl]benzenesulfonamide], the IC50 is, setting by setting: under setting [1], 1 to 5 nM; under setting [2], 1 to 5 nM. As to `Cc1ccc(S(=O)(=O)NC(=O)NCCc2ccc(-n3c4c(c5c(C)cc(C)cc53)CCN(C)C4=O)cc2)cc1` [Example 1-2, 4-methyl-N-[({2-[4-(2,5,7-trimethyl-1-oxo-1,2,3,4-tetrahydro-9H-beta-carbolin-9-yl)phenyl]ethyl}amino)carbonyl]benzenesulfonamide], the IC50 under setting [3] is less than 1 nM. Same read-out and setting: then `CN1CCc2c(n(-c3ccc(CCNC(=O)NS(=O)(=O)c4ccc(Cl)cc4)cc3)c3cc(Cl)cc(Cl)c23)C1=O` [Example 1-3, 4-chloro-N-[({2-[4-(5,7-dichloro-2-methyl-1-oxo-1,2,3,4-tetrahydro-9H-beta-carbolin-9-yl)phenyl]ethyl}amino)carbonyl]benzenesulfonamide], with less than 1 nM; and `CN1CCc2c(n(-c3ccc(CCNC(=O)NS(=O)(=O)c4ccc(Cl)cc4)cc3)c3ccc(Cl)cc23)C1=O` [Example 1-4, 4-chloro-N-[({2-[4-(6-chloro-2-methyl-1-oxo-1,2,3,4-tetrahydro-9H-beta-carbolin-9-yl)phenyl]ethyl}amino)carbonyl]benzenesulfonamide], with less than 1 nM; and `CN1CCc2c(n(-c3ccc(CCNC(=O)NS(=O)(=O)c4ccc(Cl)cc4)cc3)c3ccc(Br)cc23)C1=O` [Example 1-5, N-[({2-[4-(6-bromo-2-methyl-1-oxo-1,2,3,4-tetrahydro-9H-beta-carbolin-9-yl)phenyl]ethyl}amino)carbonyl]-4-chlorobenzenesulfonamide], with less than 1 nM. On the same count and under the same terms, the result for `CCN1CCc2c(n(-c3ccc(CCNC(=O)NS(=O)(=O)c4ccc(Cl)cc4)cc3)c3cc(Cl)cc(Cl)c23)C1=O` [Example 1-6, 4-chloro-N-[({2-[4-(5,7-dichloro-2-ethyl-1-oxo-1,2,3,4-tetrahydro-9H-beta-carbolin-9-yl)phenyl]ethyl}amino)carbonyl]benzenesulfonamide] reads less than 1 nM.

For `O=C(NCCc1ccc(-n2c3c(c4c(Cl)cc(Cl)cc42)CCN(CC2CC2)C3=O)cc1)NS(=O)(=O)c1ccc(Cl)cc1` [Example 1-7, 4-chloro-N-{[(2-{4-[5,7-dichloro-2-(cyclopropylmethyl)-1-oxo-1,2,3,4-tetrahydro-9H-beta-carbolin-9-yl]phenyl}ethyl)amino]carbonyl}benzenesulfonamide], the IC50 under setting [1] fell in the range of 1 to 5 nM and the IC50 under setting [2] was 1 to 5 nM. As for `CN1CCc2c(n(-c3ccc(CCNC(=O)NS(=O)(=O)c4ccc(Cl)cc4)cc3)c3ccc(-c4ccccc4)cc23)C1=O` [Example 1-8, 4-chloro-N-[({2-[4-(2-methyl-1-oxo-6-phenyl-1,2,3,4-tetrahydro-9H-beta-carbolin-9-yl)phenyl]ethyl}amino)carbonyl]benzenesulfonamide], the IC50 under setting [3] was less than 1 nM. Consider `O=C(NCCc1ccc(-n2c3c(c4c(Cl)cc(Cl)cc42)CCN(c2ccccc2)C3=O)cc1)NS(=O)(=O)c1ccc(Cl)cc1` [Example 1-9, 4-chloro-N-[({2-[4-(5,7-dichloro-1-oxo-2-phenyl-1,2,3,4-tetrahydro-9H-beta-carbolin-9-yl)phenyl]ethyl}amino)carbonyl]benzenesulfonamide], for which the IC50 by setting is: under setting [4], greater than 5 nM; under setting [2], greater than 5 nM. As for `CN1CCc2c(n(-c3ccc(CCNC(=O)NS(=O)(=O)c4ccc(Cl)cc4)cc3)c3cc(Cl)c(Cl)cc23)C1=O` [Example 1-10, 4-chloro-N-[({2-[4-(6,7-dichloro-2-methyl-1-oxo-1,2,3,4-tetrahydro-9H-beta-carbolin-9-yl)phenyl]ethyl}amino)carbonyl]benzenesulfonamide], the IC50 under setting [3] was less than 1 nM. On to `CN1CCc2c(n(-c3ccc(CCNC(=O)NS(=O)(=O)c4ccc(Cl)cc4)cc3)c3ccc(Cl)c(Cl)c23)C1=O` [Example 1-11, 4-chloro-N-[({2-[4-(5,6-dichloro-2-methyl-1-oxo-1,2,3,4-tetrahydro-9H-beta-carbolin-9-yl)phenyl]ethyl}amino)carbonyl]benzenesulfonamide], for which the IC50 under setting [3] was less than 1 nM.

For the molecule `CN1CCc2c(n(-c3ccc(CCNC(=O)NS(=O)(=O)c4ccc(Cl)cc4)cc3)c3cc(Cl)ccc23)C1=O` [Example 1-12, 4-chloro-N-[({2-[4-(7-chloro-2-methyl-1-oxo-1,2,3,4-tetrahydro-9H-beta-carbolin-9-yl)phenyl]ethyl}amino)carbonyl]benzenesulfonamide], the IC50 under setting [3] is less than 1 nM. The same measure, in the same setting: then `CN1CCc2c(n(-c3ccc(CCNC(=O)NS(=O)(=O)c4ccc(Cl)cc4)cc3)c3cccc(Cl)c23)C1=O` [Example 1-13, 4-chloro-N-[({2-[4-(5-chloro-2-methyl-1-oxo-1,2,3,4-tetrahydro-9H-beta-carbolin-9-yl)phenyl]ethyl}amino)carbonyl]benzenesulfonamide], with less than 1 nM; and `CN1CCc2c(n(-c3ccc(CCNC(=O)NS(=O)(=O)c4ccc(Cl)cc4)cc3)c3cccc(Br)c23)C1=O` [Example 1-14, N-[({2-[4-(5-bromo-2-methyl-1-oxo-1,2,3,4-tetrahydro-9H-beta-carbolin-9-yl)phenyl]ethyl}amino)carbonyl]-4-chlorobenzenesulfonamide], with less than 1 nM; and `CN1CCc2c(n(-c3ccc(CCNC(=O)NS(=O)(=O)c4ccc(Cl)cc4)cc3)c3cc(Br)ccc23)C1=O` [Example 1-15, N-[({2-[4-(7-bromo-2-methyl-1-oxo-1,2,3,4-tetrahydro-9H-beta-carbolin-9-yl)phenyl]ethyl}amino)carbonyl]-4-chlorobenzenesulfonamide], with less than 1 nM. Regarding `CN1CCc2c(n(-c3ccc(CC4(NC(=O)NS(=O)(=O)c5ccc(Cl)cc5)CC4)cc3)c3ccc(Br)cc23)C1=O` [Example 1-16, N-[({1-[4-(6-bromo-2-methyl-1-oxo-1,2,3,4-tetrahydro-9H-beta-carbolin-9-yl)benzyl]cyclopropyl}amino)carbonyl]-4-chlorobenzenesulfonamide], the IC50 under setting [3] is less than 1 nM. The same measure, in the same setting: the result for `CN1CCc2c(n(-c3ccc(CCNC(=O)NS(=O)(=O)c4ccc(Cl)cc4)cc3)c3cccc(-c4ccccc4)c23)C1=O` [Example 1-17, 4-chloro-N-[({2-[4-(2-methyl-1-oxo-5-phenyl-1,2,3,4-tetrahydro-9H-beta-carbolin-9-yl)phenyl]ethyl}amino)carbonyl]benzenesulfonamide] reads less than 1 nM. In the case of `CN1CCc2c(n(-c3ccc(CCNC(=O)NS(=O)(=O)c4ccc(Cl)cc4)cc3)c3cc(-c4ccccc4)ccc23)C1=O` [Example 1-18, 4-chloro-N-[({2-[4-(2-methyl-1-oxo-7-phenyl-1,2,3,4-tetrahydro-9H-beta-carbolin-9-yl)phenyl]ethyl}amino)carbonyl]benzenesulfonamide], the IC50 was greater than 5 nM under setting [4] and greater than 5 nM under setting [2].

`CN1CCc2c(n(-c3ccc(CCNC(=O)NS(=O)(=O)c4ccc(Cl)cc4)cc3)c3ccc(-c4ccc(F)cc4)cc23)C1=O` [Example 1-19, 4-chloro-N-{[(2-{4-[6-(4-fluorophenyl)-2-methyl-1-oxo-1,2,3,4-tetrahydro-9H-beta-carbolin-9-yl]phenyl}ethyl)amino]carbonyl}benzenesulfonamide]: the IC50 under setting [3] was less than 1 nM. As to `CN1CCc2c(n(-c3ccc(CCNC(=O)NS(=O)(=O)c4ccc(Cl)cc4)cc3)c3c(Cl)cccc23)C1=O` [Example 1-20, 4-chloro-N-[({2-[4-(8-chloro-2-methyl-1-oxo-1,2,3,4-tetrahydro-9H-beta-carbolin-9-yl)phenyl]ethyl}amino)carbonyl]benzenesulfonamide], the IC50 under setting [4] was greater than 5 nM and the IC50 under setting [2] was greater than 5 nM. `CN1CCc2c(n(-c3ccc(CCNC(=O)NS(=O)(=O)c4ccc(Cl)cc4)cc3)c3ccc(-c4cccnc4)cc23)C1=O` [Example 1-21, 4-chloro-N-[({2-[4-(2-methyl-1-oxo-6-pyridin-3-yl-1,2,3,4-tetrahydro-9H-beta-carbolin-9-yl)phenyl]ethyl}amino)carbonyl]benzenesulfonamide]: the half-maximal inhibitory concentration (IC50) under setting [3] is less than 1 nM. For the molecule `CN1CCc2c(n(-c3ccc(CCNC(=O)NS(=O)(=O)c4ccc(Cl)cc4)cc3)c3ccc(-c4ccccn4)cc23)C1=O` [Example 1-22, 4-chloro-N-[({2-[4-(2-methyl-1-oxo-6-pyridin-2-yl-1,2,3,4-tetrahydro-9H-beta-carbolin-9-yl)phenyl]ethyl}amino)carbonyl]benzenesulfonamide], the IC50 under setting [3] is less than 1 nM.
